Data from PMC12040169 (PLOS Biology, 2025).

Assay: in vitro
Settings: human, hela cells, % viability

| SMILES | viability at 28.5 h, 10 µM | viability at 28.5 h, 10 µM (bulk resorufin, single well) |
| --- | --- | --- |
| O=C(CC1SC(=O)NC1=O)Nc1ccccc1O (stereo not drawn) [CBK057932] | 98.5% | – |
| Cc1cc(C(F)(F)F)nn1CC(=O)Nc1sc2c(c1C#N)CCC(C)C2 (stereo not drawn) [CBK304619] | 92.1% | – |
| Cc1cc(C)c2c(c1)cc(C)c1nn(CC(=O)N3CCCC3)c(=O)n12 [CBK283876] | 85.5% | – |
| COc1ccc2[nH]cc(CCNC(=O)CCC(=O)O)c2c1 [CBK116605] | 96.5% | – |
| CNS(=O)(=O)c1cc(C(=O)N2CCN(c3ccccc3)CC2)ccc1OC [CBK270192] | 88.9% | – |
| CCC(CN1CCOCC1)NC(=O)Cc1coc2c(C)c(C)ccc12 (stereo not drawn) [CBK282813] | 82.1% | – |
| CC(C)(C)OC(=O)NC1CCC(NCc2ccccc2Br)CC1 (stereo not drawn) [CBK056684] | 91.5% | – |
| CC(=O)N1CCc2sccc2C1c1ccc(NC(=O)C2CC2)cc1 (stereo not drawn) [CBK282907] | 87.8% | – |
| CC(N)C(=O)Nc1ccccc1-c1ccccc1 (stereo not drawn) [CBK267700] | 98.7% | – |
| CN1Cc2nc[nH]c2C[C@H]1C(=O)NCc1ccco1 [CBK288979] | 88% | – |
| O=C1NC(=O)C(=CNCCN2CCN(C(=O)c3ccccc3)CC2)C(=O)N1 [CBK265190] | – | 90.5% |
| CC(C)(CO)CNc1cncc(-c2cccc(C(F)(F)F)c2)n1 [CBK065248] | 102% | – |
| O=C(O)C(Cc1ccccc1)N1C(=O)c2ccccc2C1=O (stereo not drawn) [CBK260904] | 97.6% | – |
| O=C(CS(=O)(=O)Cc1ccccc1)Nc1ccc(S(=O)(=O)N2CCCCCC2)cc1 [CBK266653] | 98.8% | – |
| CCc1nc2ccc(C(=O)Nc3cccc(OC)c3)cn2c1N(C)Cc1cccs1 [CBK145522] | 96.7% | – |
| O=C(NC1CCCc2c1cnn2-c1ccc(F)cc1)c1ccncc1 (stereo not drawn) [CBK283929] | 91.6% | – |
| CCn1cc(CC(=O)NCCn2ccc(C)n2)c2ccccc21 [CBK282670] | 96.7% | – |
| O=C(NCc1ccc(C(=O)O)cc1)NC1CCCCC1 [CBK286980] | 84.5% | – |
| Cc1cc(C)nc(N2CCC(c3cc(CCOc4cccc(C(F)(F)F)c4)[nH]n3)C2)n1 (stereo not drawn) [CBK285568] | 78.7% | – |
| CCCc1[nH]n(CC(=O)OCC)c(=O)c1Cc1c(Cl)cccc1Cl [CBK104764] | 94.4% | – |
| Cc1nnc(SCC(=O)Nc2ccc(CN3CCOCC3)cc2)n1C [CBK306092] | 102% | – |
| O=C(CCn1c(C(F)(F)F)cc2cccnc21)N1CCC(O)CC1 [CBK284887] | 89.7% | – |

| SMILES | viability at 28.5 h, 10 µM | viability at 28.5 h, 10 µM (bulk resorufin, single well) |
| --- | --- | --- |
| CCN(CC)CCNc1c(N)c(=O)oc2ccccc12 [CBK261469] | 91.7% | – |
| COC(C)CN(C)C(=O)c1cc2cc(C)ccc2nc1C (stereo not drawn) [CBK282036] | 86.5% | – |
| O=C(NCCN1CCOCC1)c1cc(-n2cnnc2)ccc1Cl [CBK268023] | 97.1% | – |
| CCN1C(=O)COC[C@@H]1[C@H](O)c1ccc(NC(=O)c2ccc(C#N)cc2)cc1 [CBK289689] | 91.6% | – |
| CC(=O)N1CCC(N2CC[C@H](c3nnc(C(C)(C)C)o3)C2)CC1 [CBK289404] | 82.4% | – |
| Cc1cccc(CNc2nccnc2-c2cccs2)c1 [CBK036808] | 104% | – |
| COc1ccc(C(CC(=O)O)CC(=O)O)cc1OC [CBK263545] | 91.9% | – |
| O=C(NNC(=O)c1ccccc1C(=O)O)c1cccc(Cl)c1 [CBK261658] | 94.7% | – |
| Cc1ccccc1OCC(=O)NCC1(N2CCCCC2)CCCCC1 [CBK297752] | 89.5% | – |
| O=c1oc2ccccc2n1Cc1coc(-c2ccccc2)n1 [CBK296649] | 98.1% | – |
| CC(C)(C)OC(=O)N1CCC(C(Cc2ccc(-c3ccc(S(C)(=O)=O)cc3)cc2)C(=O)NCCOCCO)CC1 (stereo not drawn) [CBK173128] | 83.7% | – |
| Cc1cc(C)c(NC(=O)CSc2ncccc2-c2nc(C)no2)c(C)c1 [CBK287821] | 86.7% | – |
| CCN(CC)C(=O)C1CCCN(C(=O)NCc2ccc(Cl)c(Cl)c2)C1 (stereo not drawn) [CBK156119] | 98.8% | – |
| Cc1cc(C)nc(NC(=O)c2cccc(Cl)c2)n1 [CBK288165] | 90% | – |
| COc1ccc([C@@]23CC[C@@H](NC(=O)Nc4cccc(Br)c4)C[C@@H]2N(C)CC3)cc1OC [CBK038225T] | 91.4% | – |
| c1ccc(-c2c(-c3ccccc3)n(Cc3ccco3)c3ncn4nc(-c5cccnc5)nc4c23)cc1 [CBK265374] | 100% | – |
| CCN1C(=O)c2cccc3c(S(=O)(=O)N4CCCC4C(=O)O)ccc1c23 (stereo not drawn) [CBK267169] | 109% | – |
| Cc1oc2ccc(O)cc2c1C(=O)N(C)CCOc1ccccc1 [CBK282696] | 111% | – |
| O=C1N[C@H]2CCCN(C(=O)CCN3CCCC3)[C@H]2C/C=C/CCOc2ccccc21 [CBK292162] | 112% | – |
| O=C(Nc1ccc(OC(F)F)cc1)Nc1ncc(Br)c2cccnc12 [CBK107635] | 115% | – |
| Oc1ccc(/C=N/Nc2nnc(-c3ccccc3)c(-c3ccccc3)n2)cc1 [CBK262011] | 112% | – |
| CCOc1cccc(NC(=O)/C(C#N)=C\c2cc(C)n(-c3ccc4c(c3)OCO4)c2C)c1 [CBK263191] | 85.9% | – |

| SMILES | viability at 28.5 h, 10 µM | viability at 28.5 h, 10 µM (bulk resorufin, single well) |
| --- | --- | --- |
| COc1ccc(Oc2nccc(N3CCCN(CCCO)CC3)n2)cc1OC [CBK084158] | 93.5% | – |
| Nc1cc(S(=O)(=O)O)c2cccnc2c1O [CBK278176] | 75.4% | – |
| Cc1cccc(N2C(=O)NC(=O)/C(=C/NC3CCN(Cc4ccccc4)CC3)C2=O)c1 [CBK261827] | – | 92.2% |
| O=C(Nc1ccc2n(c1=O)C[C@H]1C[C@@H]2CN(C(=O)COc2ccccc2)C1)C1CCCCC1 [CBK289175] | 91.9% | – |
| c1csc(-c2nc3[nH]c4ccccc4n3n2)c1 [CBK264118] | 102% | – |
| COc1ccc(Nc2ncc(C(=O)NCCCN3CCCC3)c3ccccc23)cc1 [CBK291114] | 106% | – |
| CC(CNC(=O)C(C)(C)C)NC(=O)C(C)(C)C (stereo not drawn) [CBK265443] | 93.6% | – |
| O=c1nc2n(Cc3ccccc3)c3ccccc3cc-2c(=O)[nH]1 [CBK287958] | 79.8% | – |
| COc1ccc(-c2cncc(NCc3ccncc3)n2)cc1 [CBK065394] | 111% | – |
| O=C(CN(Cc1ccc(F)cc1)S(=O)(=O)c1ccc(Cl)cc1)Nc1ccc2c(c1)OCCO2 [CBK265346] | 90.2% | – |
| CNC(=O)C1(Cc2ccccc2-c2ccccc2)CCN(C(=O)c2cccc(OC)c2)CC1 [CBK285922] | 85.3% | – |
| CC(=O)N1CCC[C@H]2NC(=O)CNC(=O)C3(C/C=C/C[C@H]21)CCN(C(=O)C1CCC1)CC3 [CBK292177] | 109% | – |
| COc1cccc([C@H]2CN(C(=O)c3ccccc3)[C@@H]3CCN(Cc4cccs4)C[C@H]23)c1 [CBK285609] | 102% | – |
| O=C(NCc1c(F)cccc1F)c1ccc(-c2ccc(OC(F)(F)F)cc2)nc1 [CBK161007T] | 97.6% | – |
| CC1CCN(S(=O)(=O)c2ccc(NC(=O)CN3CCOCC3)cc2)CC1 [CBK268339] | 81.4% | – |
| COCCNc1ncnc2sc3c(c12)CCCC3 [CBK287583] | 98.4% | – |
| Cc1ccc(S(N)(=O)=O)cc1NC(=O)c1ccc(S(=O)(=O)N(C)C)cc1 [CBK266050] | 103% | – |
| Cc1ccc(CN2CCNCC2CCO)o1 (stereo not drawn) [CBK269844] | 92.3% | – |
| CC(=O)c1ccc(-c2nccnc2NCC(O)COc2ccccc2)s1 (stereo not drawn) [CBK036976] | 107% | – |
| CN1CCN(CC2(CNC(=O)c3ccc(C(=O)O)cc3)CC2)CC1 [CBK307517] | 102% | – |
| CN(C)CCCNC(=O)c1ccnc(/C=N/O)c1 [CBK288434] | 101% | – |
| CC1CCCCN1Cc1nc2c(c(=O)n(C)c(=O)n2C)n1Cc1ccc(Br)cc1 (stereo not drawn) [CBK269184] | 95.3% | – |

| SMILES | viability at 28.5 h, 10 µM | viability at 28.5 h, 10 µM (bulk resorufin, single well) |
| --- | --- | --- |
| Cc1nc(CNC(=O)NC2CCCN(c3ncccn3)C2)cs1 (stereo not drawn) [CBK305640] | 95.3% | – |
| COc1ccc(-c2cn(-c3cccc(NC(C)=O)c3)nn2)cc1 [CBK113008] | 97.2% | – |
| COc1ccc(C=CC(=O)ONC(=O)c2ccc(OC(F)F)cc2)cc1OC [CBK296098] | 92.8% | – |
| Cc1cc(C23CC4CC(CC(C(=O)O)(C4)C2)C3)c(C)cc1C12CC3CC(CC(C(=O)O)(C3)C1)C2 [CBK261734] | 112% | – |
| COc1ccccc1N1CCN(c2cc(N3CCNCC3)ccc2[N+](=O)[O-])CC1 [CBK293931] | 85.1% | – |
| C=CCN1C(=O)C2(CC(=O)N(Cc3ccc(OC)c(OC)c3)C2=O)c2ccccc21 (stereo not drawn) [CBK075148] | 114% | – |
| C=CCn1c(Cc2csc(NC(=O)c3cnc(SC)n3-c3ccccc3)n2)n[nH]c1=S [CBK297786] | 84.3% | – |
| CCOC(=O)c1c(C)n(-c2ccc(C)cc2)c2ccc(O)c(CN(C)C)c12 [CBK263499C] | 78.5% | – |
| Cc1ccc2nc3c(cc(C(=O)NC4CCCC4)c(=N)n3Cc3ccco3)c(=O)n2c1 [CBK265242] | 81% | – |
| O=C(C1CCCCC1)N1CC(n2nc(-c3cccs3)ccc2=O)C1 [CBK283346] | 99.2% | – |
| COc1ccc(C)cc1S(=O)(=O)n1ccc2c(CNC3CC(C)(C)NC(C)(C)C3)cccc21 [CBK113311T] | 83.1% | – |
| CCCS(=O)(=O)N1CCC2(CCCN(Cc3cccc(F)c3F)C2=O)C1 (stereo not drawn) [CBK306694] | 90.8% | – |
| Cn1nccc1C(=O)NC(Cc1ccsc1)c1cccnc1 (stereo not drawn) [CBK285394] | 98.6% | – |
| COc1cc(C(CC(C)NC(C)(C)C)c2ccccc2)ccc1OCc1ccccc1 (stereo not drawn) [CBK017901] | 79.8% | – |
| Cc1ccc(/C=C2\SC(=S)N(CCCC(=O)N3CCC(Cc4ccccc4)CC3)C2=O)cc1 [CBK264356] | 101% | – |
| O=C(NCc1ccc(N2CCCC2=O)cc1)c1cc(Br)ccc1O [CBK296614] | 91.2% | – |
| CCC(NS(=O)(=O)c1ccc(Br)cc1)C(=O)O (stereo not drawn) [CBK264472] | 97% | – |
| CC1Cc2cc(C(=O)N3CCCCC3CCN3CCCC3)ccc2O1 (stereo not drawn) [CBK282094] | 100% | – |
| CCc1csc(C(=Cc2ccc(OC)cc2)C(N)=O)n1 [CBK001010] | 86.9% | – |
| O=C1CCC(C(=O)Nc2cnc(-c3cccc(C(F)(F)F)c3)c(-c3cccnc3)n2)=NN1 [CBK036950] | 88.3% | – |
| CCOc1ccc(C(=O)C2=C(O)C(=O)N(CCN(C)C)C2c2ccc(N(C)C)cc2)c(C)c1 (stereo not drawn) [CBK264603] | 110% | – |
